Data as given in PMC9221290, “Alkaloids of Dicranostigma franchetianum (Papaveraceae) and Berberine Derivatives as a New Class of Antimycobacterial Agents” (Biomolecules, 2022).
Values after ≈ are worked out from the molar mass of the structure shown. Where two headings read alike, the source gives them in different places.

Columns and labels:
[1] = system: Mycobacterium kansasii DSM 44162 (ATCC 12478); assay: Antimycobacterial microdilution broth assay (resazurin), M. kansasii; assay type: cell-based; conditions: Mycobacterium kansasii, 96 h, read-out: MIC M. kansasii, microdilution broth, resazurin, 96 h
[2] = system: Mtb H37Ra ITM-M006710 (ATCC 9431); assay: Antimycobacterial microdilution broth assay (resazurin), Mtb H37Ra; assay type: cell-based, Mycobacterium tuberculosis; conditions: Mycobacterium tuberculosis, read-out: MIC Mtb H37Ra
[3] = system: Mycolicibacterium smegmatis DSM 43465 (ATCC 607); assay: Antimycobacterial microdilution broth assay (resazurin), M. smegmatis; assay type: cell-based; conditions: Mycolicibacterium smegmatis, 48 h, read-out: MIC M. smegmatis, microdilution broth, resazurin, 48 h
in vitro = conditions: human, % of cell viability compared to control; for viability at 1 µM: HepG2, 1 µM; for viability at 5 µM: HepG2, 5 µM; for viability at 10 µM: HepG2, 10 µM; for viability at 25 µM: HepG2, 25 µM; for viability at 50 µM: HepG2, 50 µM; for viability at 75 µM: HepG2, 75 µM; for viability at 100 µM: HepG2, 100 µM; for viability at 0.1 µM: HepG2, 0.1 µM; for viability at 20 µM: HepG2, 20 µM; for viability at 30 µM: HepG2, 30 µM; for viability at 40 µM: HepG2, 40 µM
HepG2 cells [4] = assay: cells; conditions: Homo sapiens, HepG2, 24 h
[5] = system: Mycobacterium avium DSM 44156 (ATCC 25291); assay: Antimycobacterial microdilution broth assay (resazurin), M. avium; assay type: cell-based; conditions: Mycobacterium avium, 96 h, read-out: MIC M. avium, microdilution broth, resazurin, 96 h
[6] = system: Mycolicibacterium aurum DSM 43999 (ATCC 23366); assay: Antimycobacterial microdilution broth assay (resazurin), M. aurum; assay type: cell-based; conditions: Mycolicibacterium aurum, 72 h, read-out: MIC M. aurum, microdilution broth, resazurin, 72 h
HepG2 cells [7] = system: HepG2 cells
[8] = system: five Mycobacterium or Mycolicibacterium strains; assay: organism not typed; assay type: cell-based; conditions: read-out: MICs against all tested mycobacterial strains
[9] = 120 h, microdilution broth, resazurin, 120 h
[10] = calculated from MIC (µg/mL) and MW
[11] = read-out: HepG2 IC50, 1. measurement, MTT, 24 h, single measurement 1
[12] = read-out: HepG2 IC50, 2. measurement, MTT, 24 h, single measurement 2
[13] = read-out: HepG2 IC50, 3. measurement, MTT, 24 h, single measurement 3
[14] = read-out: HepG2 IC50, MTT, 24 h incubation

Compound	MIC [1]	MIC [2, 9]	MIC [2, 10]	MIC [3]	viability at 1 µM (in vitro; 1. measurement)	viability at 5 µM (in vitro; 1. measurement)	viability at 10 µM (in vitro; 1. measurement)	viability at 50 µM (in vitro; 1. measurement)	viability at 1 µM (in vitro; 2. measurement)	viability at 5 µM (in vitro; 2. measurement)	viability at 10 µM (in vitro; 2. measurement)	viability at 50 µM (in vitro; 2. measurement)	viability at 1 µM (in vitro; 3. measurement)	viability at 5 µM (in vitro; 3. measurement)	viability at 10 µM (in vitro; 3. measurement)	viability at 50 µM (in vitro; 3. measurement)	IC50 (HepG2 cells [4]; [11])	IC50 (HepG2 cells [4]; [12])	MIC [5]	MIC [6]	other results
COc1ccc2cc3[n+](cc2c1OCc1ccc(Br)cc1)CCc1cc2c(cc1-3)OCO2 [16g, 9-O-(4-brombenzyl)berberine chloride]	0.98 µg/mL	3.91 µg/mL	7.42 µM	0.98 µg/mL	101%	70.1%	53.9%	42.5%	96.5%	76.3%	59.4%	47.8%	85%	72.1%	56.6%	45.5%	19.2 µM	26.9 µM	1.98 µg/mL	3.91 µg/mL	viability at 25 µM (in vitro; 1. measurement): 46.7%; viability at 75 µM (in vitro; 1. measurement): 25.8%; viability at 100 µM (in vitro; 1. measurement): 17.9%; viability at 25 µM (in vitro; 2. measurement): 44.7%; viability at 75 µM (in vitro; 2. measurement): 40.7%; viability at 100 µM (in vitro; 2. measurement): 23.9%; viability at 25 µM (in vitro; 3. measurement): 45.8%; viability at 75 µM (in vitro; 3. measurement): 26%; viability at 100 µM (in vitro; 3. measurement): 14%; IC50 (HepG2 cells [4]; [13]): 18.2 µM; IC50 (HepG2 cells [4]; [14]): 21.4 ± 4.8 µM; SI (selectivity index) (HepG2 cells [7]): 2.89
COc1ccc2cc3[n+](cc2c1OCc1cccc(Cl)c1)CCc1cc2c(cc1-3)OCO2 [16h, 9-O-(3-chlorbenzyl)berberine chloride]	3.12 µg/mL	3.12 µg/mL	5.93 µM	0.78 µg/mL	65.4%	66.5%	51.7%	36.5%	94.6%	67.4%	54.2%	12.8%	87.2%	54.4%	47.8%	15.6%	8.53 µM	11.9 µM	1.56 µg/mL	1.56 µg/mL	viability at 25 µM (in vitro; 1. measurement): 44.2%; viability at 75 µM (in vitro; 1. measurement): 23.8%; viability at 100 µM (in vitro; 1. measurement): 15.7%; viability at 25 µM (in vitro; 2. measurement): 44.6%; viability at 75 µM (in vitro; 2. measurement): 1.14%; viability at 100 µM (in vitro; 2. measurement): 0.68%; viability at 25 µM (in vitro; 3. measurement): 36%; viability at 75 µM (in vitro; 3. measurement): 2.92%; viability at 100 µM (in vitro; 3. measurement): 0.98%; IC50 (HepG2 cells [4]; [13]): 7.91 µM; IC50 (HepG2 cells [4]; [14]): 9.44 ± 2.13 µM; SI (selectivity index) (HepG2 cells [7]): 1.59
COc1ccc2cc3[n+](cc2c1OCc1ccc(Cl)cc1)CCc1cc2c(cc1-3)OCO2 [16i, 9-O-(4-chlorbenzyl)berberine chloride]	6.25 µg/mL	3.12 µg/mL	5.93 µM	1.56 µg/mL	101%	82.3%	55.3%	4.45%	93.6%	78%	56%	3.4%	100%	82.3%	61.1%	2.8%	15.9 µM	14.7 µM	1.56 µg/mL	3.12 µg/mL	viability at 0.1 µM (in vitro; 1. measurement): 96.1%; viability at 20 µM (in vitro; 1. measurement): 48.5%; viability at 30 µM (in vitro; 1. measurement): 42.3%; viability at 40 µM (in vitro; 1. measurement): 24.7%; viability at 0.1 µM (in vitro; 2. measurement): 91.6%; viability at 20 µM (in vitro; 2. measurement): 48.4%; viability at 30 µM (in vitro; 2. measurement): 40%; viability at 40 µM (in vitro; 2. measurement): 21.4%; viability at 0.1 µM (in vitro; 3. measurement): 98.2%; viability at 20 µM (in vitro; 3. measurement): 54.6%; viability at 30 µM (in vitro; 3. measurement): 45%; viability at 40 µM (in vitro; 3. measurement): 25.8%; IC50 (HepG2 cells [4]; [13]): 18 µM; IC50 (HepG2 cells [4]; [14]): 16.2 ± 1.67 µM; SI (selectivity index) (HepG2 cells [7]): 2.73
COc1ccc2cc3[n+](cc2c1OCc1ccc(Cl)c(Cl)c1)CCc1cc2c(cc1-3)OCO2 [16k, 9-O-(3,4-dichlorbenzyl)berberine chloride]	6.25 µg/mL	1.56 µg/mL	2.78 µM	1.56 µg/mL	97.6%	66.5%	50.4%	35%	97.8%	79.2%	46.7%	35%	85.7%	67%	46.9%	11.7%	13.3 µM	14.8 µM	1.56 µg/mL	1.56 µg/mL	viability at 25 µM (in vitro; 1. measurement): 43.4%; viability at 75 µM (in vitro; 1. measurement): 13.2%; viability at 100 µM (in vitro; 1. measurement): 2.33%; viability at 25 µM (in vitro; 2. measurement): 35.5%; viability at 75 µM (in vitro; 2. measurement): 28.2%; viability at 100 µM (in vitro; 2. measurement): 4.02%; viability at 25 µM (in vitro; 3. measurement): 43.6%; viability at 75 µM (in vitro; 3. measurement): 0.77%; viability at 100 µM (in vitro; 3. measurement): 0.81%; IC50 (HepG2 cells [4]; [13]): 9.9 µM; IC50 (HepG2 cells [4]; [14]): 12.7 ± 2.51 µM; SI (selectivity index) (HepG2 cells [7]): 4.55
CCOC1c2c(ccc(OC)c2OC)-c2ccc3cc4c(cc3c2N1C)OCO4 (stereo not drawn) [compound 3, 6-ethoxydihydrochelerythrine]	31.2 µg/mL (≈ 79.4 µM)	31.2 µg/mL	79 µM	31.2 µg/mL (≈ 79.4 µM)															31.2 µg/mL (≈ 79.4 µM)	15.6 µg/mL (≈ 39.7 µM)	MIC [8]: 15.6 to 31.2 µg/mL (≈ 39.7 to 79.4 µM)
